# In PubChem BioAssay (NCI):
# “And” between values parts separate entries of the source, which are not always exact repeats. Equal entries are not always repeated.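 Tested at 5 concentrations; 48 h exposure; 96-well plates; endpoints linearly interpolated, else capped at highest concentration. Abbreviation: GI50, concentration required for 50% inhibition of growth. TGI: concentration producing complete growth inhibition.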 Where a SMILES comes first, the peptide text is derived from it. [ ]: non-standard residue; d: D form. The star is where a group is joined. NMeF = CN[CH](Cc1ccccc1)C(=O)O; NMeV = CN[CH](C(=O)O)C(C)C; Boc = CC(C)(C)OC(=O)*; OBn = c1ccc(CO*)cc1
# How the values were obtained:
# Assay in all cases: NCI tumour cell line growth inhibition, 48 h
# LXFL 529 NSCLC = system: LXFL 529 NSCLC
# KM20L2 colon = system: KM20L2 colon
# DMS 114 small cell lung = system: DMS 114 small cell lung
# 786-0 renal = system: 786-0 renal
# NCI-H226 lung = system: NCI-H226 lung
# HCT-116 colon = system: HCT-116 colon
# M19-MEL melanoma = system: M19-MEL melanoma
# DMS 273 small cell lung = system: DMS 273 small cell lung
# SNB-78 CNS = system: SNB-78 CNS
# DLD-1 colon = system: DLD-1 colon
# DU-145 prostate = system: DU-145 prostate
# CAKI-1 renal = system: CAKI-1 renal
# MOLT-4 leukemia = system: MOLT-4 leukemia
# HOP-18 NSCLC = system: HOP-18 NSCLC
# XF 498 CNS = system: XF 498 CNS
# P388 leukemia = system: P388 leukemia
# SN12K1 renal = system: SN12K1 renal
# P388/ADR leukemia = system: P388/ADR leukemia
SMILES,TGI (LXFL 529 NSCLC),TGI (KM20L2 colon),TGI (DMS 114 small cell lung),TGI (786-0 renal),TGI (NCI-H226 lung),TGI (HCT-116 colon),TGI (M19-MEL melanoma),TGI (DMS 273 small cell lung),TGI (SNB-78 CNS),TGI (DLD-1 colon),TGI (DU-145 prostate),TGI (CAKI-1 renal),TGI (MOLT-4 leukemia),TGI (HOP-18 NSCLC),TGI (XF 498 CNS),GI50 (NCI-H226 lung),TGI (P388 leukemia),GI50 (HCT-116 colon),TGI (SN12K1 renal),TGI (P388/ADR leukemia)
COCC(=O)[C@]1(O)Cc2c(O)c3c(c(O)c2[C@@H](OC2CC(N)C(O)C(C)O2)C1)C(=O)c1c(OC)cccc1C3=O (some centres not stated),2.11 µM,0.938 µM,0.477 µM,12.2 µM,0.665 µM,1.08 µM,0.339 µM,0.603 µM,30.6 µM,5.15 µM,0.974 µM,0.422 µM,0.054 µM,–,–,–,–,–,–,–
C[C@]12CCC(=O)C=C1CC[C@@H]1[C@@H]2C(=O)C[C@@]2(C)[C@H]1CC[C@]2(O)C(=O)CO,> 100 µM,> 100 µM,> 100 µM,> 100 µM,> 100 µM,> 100 µM,> 100 µM,> 100 µM,–,> 100 µM,–,> 100 µM,> 100 µM,> 100 µM,> 100 µM,–,–,–,–,–
O=C(c1ccc(Cl)cc1)N(C(=S)N1CCN(c2ccccn2)CC1)c1ccccc1,> 100 µM,> 100 µM,> 100 µM,> 100 µM,> 100 µM,> 100 µM,> 100 µM,> 100 µM,> 100 µM,> 100 µM,–,> 100 µM,> 100 µM,> 100 µM,–,–,–,–,–,–
Cc1cc(=O)c2c(O)c3c(O)cc(O)c4c5c(O)cc(O)c6c(O)c7c(=O)cc(C)c8c1c2c(c34)c(c65)c78,–,49.2 µM,–,> 100 µM,> 100 µM and 44.3 µM,> 100 µM and 64.2 µM,> 63.6 µM,> 100 µM,> 77.3 µM,47.5 µM,> 100 µM,> 100 µM,> 100 µM and 24.2 µM,> 100 µM,> 100 µM,> 100 µM and 16.3 µM,72.8 µM,> 100 µM and 21.6 µM,> 100 µM,> 100 µM
COc1ccc2[nH]c(C(=O)N3CC(CCl)c4ccc([N+](=O)[O-])cc43)cc2c1 (configuration not stated),–,–,–,> 100 µM,> 100 µM,> 100 µM,–,–,–,–,> 100 µM,> 100 µM,> 100 µM,–,–,–,–,–,–,–
CC(C)C(NC(=O)OC(C)(C)C)C(=O)N(C)C(Cc1ccccc1)C(=O)N(C)C(C(=O)N(C)C(C(=O)OCc1ccccc1)C(C)C)C(C)C (configuration not stated) (Boc-V[NMeF][NMeV][NMeV]-OBn; configuration not given here),> 100 µM,> 100 µM,> 100 µM,> 100 µM,> 100 µM,> 100 µM,> 100 µM,> 100 µM,–,–,–,–,> 100 µM,–,82.4 µM,–,–,–,–,–
Cc1ccnc(NC(=S)Nc2ccccc2Cl)c1,–,–,–,> 100 µM,> 100 µM,> 100 µM,–,–,–,–,> 100 µM,> 100 µM,> 100 µM,–,–,–,–,–,–,–
O=C1c2ccccc2C(=O)N1C(=S)c1ccccc1,–,–,–,> 100 µM,> 100 µM,> 100 µM,–,–,–,–,> 100 µM,> 100 µM,> 100 µM,–,–,–,–,–,–,–
C=CCC1NCCC2=C1C(S(=O)(=O)c1ccc(C)cc1)c1ccccc12 (configuration not stated),–,–,–,25.7 µM,35.9 µM,23.6 µM,–,–,–,–,24.3 µM,19.6 µM,> 100 µM,–,–,–,–,–,–,–
Clc1ccc(OCC2NC3C=CC32)cn1 (configuration not stated),–,–,–,> 100 µM,> 100 µM,> 100 µM,–,–,–,–,> 100 µM,> 100 µM,> 100 µM,–,–,–,–,–,–,–
O=c1c2cc(-c3ccccc3)cnc2sn1-c1ccc([N+](=O)[O-])cc1,–,–,–,> 100 µM,> 100 µM,> 100 µM,–,–,–,–,> 100 µM,> 100 µM,> 100 µM,–,–,–,–,–,–,–
c1ccc([C@H]2CN3CCSC3=N2)cc1,–,–,–,> 100 µM,> 100 µM,> 100 µM,–,–,–,–,> 100 µM,> 100 µM,> 100 µM,–,–,–,–,–,–,–
COC(=O)C1(NC(=O)C(N)CC(=O)O)C(C)C1C (configuration not stated),–,–,–,> 100 µM,> 100 µM,> 100 µM,–,–,–,–,> 100 µM,> 100 µM,> 100 µM,–,–,–,–,–,–,–
Sc1nnc(-c2ccccc2Nc2ccccc2-c2nnc(S)n2-c2ccccc2)n1-c1ccccc1,–,–,–,> 100 µM,> 100 µM,> 100 µM,–,–,–,–,> 100 µM,> 100 µM,78.9 µM,–,–,–,–,–,–,–
CCN(CC)C(=O)c1c(N2CCOCC2)cc(N(CC)CC)oc1=O,> 100 µM,> 100 µM,> 100 µM,> 100 µM,> 100 µM,> 100 µM,> 100 µM,> 100 µM,> 100 µM,> 100 µM,–,–,> 100 µM,> 100 µM,> 100 µM,–,–,–,–,–
NCCCCNCCCN,–,–,–,> 100 µM,> 100 µM,> 100 µM,–,–,–,–,> 100 µM,3.1 µM,> 100 µM,–,–,–,–,–,–,–
C[C@H](CC[C@@H](O)C(C)(C)O)[C@H]1CC[C@@]2(C)[C@@H]3CC=C4[C@@H](CC[C@H](OC5OC(CO)C(O)C(O)C5O)C4(C)C)[C@]3(C)C(=O)C[C@]12C (some centres not stated),–,–,–,70.5 µM,> 100 µM,> 100 µM,–,–,–,–,> 100 µM,> 100 µM,> 100 µM,–,–,–,–,–,–,–
COC(=O)c1ccc(C)cc1C1CN=NC12Cc1cc(C)c(C)cc1C2=O (configuration not stated),–,–,–,> 100 µM,> 100 µM,> 100 µM,–,–,–,–,> 100 µM,> 100 µM,93 µM,–,–,–,–,–,–,–
